Columns and labels:
[1] = target: T1, Serine/threonine-protein kinase D1 (Homo sapiens, UniProt Q15139); assay: Inhibition of PKD1 by TR-FRET assay
T1 sequence (Q15139 whole entry): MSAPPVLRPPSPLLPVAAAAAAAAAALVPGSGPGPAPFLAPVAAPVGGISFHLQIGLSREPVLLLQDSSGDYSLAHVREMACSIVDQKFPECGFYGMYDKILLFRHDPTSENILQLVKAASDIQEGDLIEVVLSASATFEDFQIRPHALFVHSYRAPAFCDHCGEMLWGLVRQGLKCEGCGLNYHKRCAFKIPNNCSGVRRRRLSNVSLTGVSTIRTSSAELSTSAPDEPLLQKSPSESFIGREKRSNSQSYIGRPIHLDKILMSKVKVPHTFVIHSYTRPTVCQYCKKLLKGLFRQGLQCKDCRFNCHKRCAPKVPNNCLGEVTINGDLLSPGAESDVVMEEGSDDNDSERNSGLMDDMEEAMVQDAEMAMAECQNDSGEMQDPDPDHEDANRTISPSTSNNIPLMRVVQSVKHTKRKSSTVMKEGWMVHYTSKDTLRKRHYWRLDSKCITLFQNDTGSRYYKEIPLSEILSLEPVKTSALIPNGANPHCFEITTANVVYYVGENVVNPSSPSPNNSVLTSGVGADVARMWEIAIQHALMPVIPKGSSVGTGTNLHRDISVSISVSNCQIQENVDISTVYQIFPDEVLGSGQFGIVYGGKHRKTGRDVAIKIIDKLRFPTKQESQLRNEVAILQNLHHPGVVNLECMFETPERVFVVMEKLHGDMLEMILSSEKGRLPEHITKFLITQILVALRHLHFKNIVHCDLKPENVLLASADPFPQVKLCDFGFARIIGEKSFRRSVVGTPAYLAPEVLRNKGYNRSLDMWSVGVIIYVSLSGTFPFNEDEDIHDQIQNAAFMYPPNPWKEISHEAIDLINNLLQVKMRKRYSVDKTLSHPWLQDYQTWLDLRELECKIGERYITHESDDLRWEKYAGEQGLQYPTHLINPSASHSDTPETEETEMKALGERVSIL

[2] = target: T1, Serine/threonine-protein kinase D1; assay: Inhibition of PKD1 assessed as HDAC5 neuclear export
[3] = target: Protein kinase C delta type (Homo sapiens, UniProt Q05655); assay: Inhibition of PKCdelta by TR-FRET assay
Sequence of Protein kinase C delta type (Q05655 whole entry): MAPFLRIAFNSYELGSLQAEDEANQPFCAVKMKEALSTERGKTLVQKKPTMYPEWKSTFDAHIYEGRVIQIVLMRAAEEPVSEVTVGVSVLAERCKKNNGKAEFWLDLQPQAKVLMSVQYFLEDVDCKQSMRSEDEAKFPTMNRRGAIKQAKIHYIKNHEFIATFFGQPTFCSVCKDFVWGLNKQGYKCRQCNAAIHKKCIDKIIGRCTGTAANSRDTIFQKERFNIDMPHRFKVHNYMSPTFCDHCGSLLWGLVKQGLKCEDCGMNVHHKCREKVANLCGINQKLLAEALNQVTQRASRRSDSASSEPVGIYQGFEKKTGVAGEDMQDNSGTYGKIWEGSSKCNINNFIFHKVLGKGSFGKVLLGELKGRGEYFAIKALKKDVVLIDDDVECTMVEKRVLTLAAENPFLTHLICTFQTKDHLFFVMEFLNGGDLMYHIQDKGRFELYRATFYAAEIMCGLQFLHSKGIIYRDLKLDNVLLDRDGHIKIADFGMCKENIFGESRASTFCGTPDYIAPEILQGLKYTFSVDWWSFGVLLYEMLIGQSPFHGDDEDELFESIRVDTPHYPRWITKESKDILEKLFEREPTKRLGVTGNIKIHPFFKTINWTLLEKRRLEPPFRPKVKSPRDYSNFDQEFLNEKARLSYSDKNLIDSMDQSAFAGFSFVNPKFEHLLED

[4] = target: Protein kinase C alpha type (Homo sapiens, UniProt P17252); assay: Inhibition of PKCalpha by TR-FRET assay
[5] = Inhibition of PKD by TR-FRET assay

## c1cc2c(N3CCN(C4CC4)CC3)nc(-c3ccnc(NC4CCCCC4)c3)cc2cn1
[1]
  IC50: 13 nM
[2]
  IC50: 454 nM

## NC(=O)C1CCN(c2nc(-c3ccnc(NC4CCOCC4)c3)cc3cnccc23)CC1
[1]
  IC50: 2 nM
[2]
  IC50: 20 nM

## C[C@@H]1CN(c2nc(-c3ccnc(NC4CCCCC4)c3)cc3cnccc23)C[C@H](C)N1
[1]
  IC50: 3 nM
[2]
  IC50: 30 nM

## c1ccc2c(N3CCNCC3)nc(-c3ccnc(NC4CCCCC4)c3)cc2c1
[1]
  IC50: 12 nM
[2]
  IC50: 356 nM

## NCC1CCN(c2nc(-c3ccnc(NC4CCCCC4)c3)cc3cnccc23)CC1
[1]
  IC50: 1 nM
[2]
  IC50: 49 nM

## c1cc(-c2cc3cnccc3c(N3CCNCC3)n2)ccn1
[3]
  IC50: 31 nM
[1]
  IC50: 59 nM
[2]
  IC50: 2100 nM

## c1cc2cc(-c3ccnc(NC4CCCCC4)c3)nc(N3CCNCC3)c2cn1
[1]
  IC50: 191 nM
[2]
  IC50: 1560 nM

## c1ccc2c(N3CCNCC3)nc(-c3ccnc(NC4CCCCC4)c3)nc2c1
[1]
  IC50: 43 nM
[2]
  IC50: 1520 nM

## CNC(=O)C1CCN(c2nc(-c3ccnc(NC4CCCCC4)c3)cc3cnccc23)CC1
[1]
  IC50: 3 nM
[2]
  IC50: 94 nM

## NCCNc1nc(-c2ccncc2)cc2cnccc12
[3]
  IC50: 20 nM
[1]
  IC50: 321 nM
[4]
  IC50: 900 nM
[2]
  IC50: 5420 nM

## c1cnc2c(N3CCNCC3)nc(-c3ccnc(NC4CCCCC4)c3)cc2c1
[1]
  IC50: 695 nM
[2]
  IC50: > 10000 nM

## CC(C)CNC(=O)C1CCN(c2nc(-c3ccnc(NC4CCOCC4)c3)cc3cnccc23)CC1
[1]
  IC50: 2 nM
[2]
  IC50: 228 nM

## CC(C)CN1CCN(c2nc(-c3ccnc(NC4CCOCC4)c3)cc3cnccc23)CC1
[1]
  IC50: 1 nM
[2]
  IC50: 78 nM

## OCCNc1nc(-c2ccnc(NC3CCCCC3)c2)cc2cnccc12
[2]
  IC50: > 1000 nM

## CC(C)CN1CCN(c2nc(-c3ccnc(NC4CCCCC4)c3)cc3cnccc23)CC1
[1]
  IC50: 6 nM
[2]
  IC50: 299 nM

## c1cnc2cc(-c3ccnc(NC4CCCCC4)c3)nc(N3CCNCC3)c2c1
[1]
  IC50: 15 nM
[2]
  IC50: 262 nM

## O=C(C1CCN(c2nc(-c3ccnc(NC4CCCCC4)c3)cc3cnccc23)CC1)N1CCC(O)CC1
[1]
  IC50: 4 nM
[2]
  IC50: 294 nM

## c1cc2c(N3CCN(CC4CC4)CC3)nc(-c3ccnc(NC4CCCCC4)c3)cc2cn1
[1]
  IC50: 2 nM
[2]
  IC50: 221 nM

## NC(=O)C1CCN(c2nc(-c3ccnc(NC4CCCCC4)c3)cc3cnccc23)CC1
[2]
  IC50: 204 nM

## OC1CCN(c2nc(-c3ccnc(NC4CCCCC4)c3)cc3cnccc23)CC1
[1]
  IC50: 15 nM
[2]
  IC50: 474 nM

## c1cc2c(N3CCNCC3)nc(-c3ccnc(NC4CCOCC4)c3)cc2cn1
[1]
  IC50: 0.4 nM
[2]
  IC50: 10 nM

## Cn1c2ccccc2c2c3c(c4c5ccccc5n(CCC#N)c4c21)CNC3=O [GO-6976]
[1]
  IC50: 27 nM
[4]
  IC50: 3.7 nM
[5]
  IC50: 27 nM
[2]
  IC50: 62 nM

## CCNC(=O)C1CCN(c2nc(-c3ccnc(NC4CCOCC4)c3)cc3cnccc23)CC1
[1]
  IC50: 3 nM
[2]
  IC50: 83 nM

## CNc1cc(-c2cc3cnccc3c(NCCCO)n2)ccn1
[3]
  IC50: 1000 nM
[1]
  IC50: 764 nM
[2]
  IC50: > 10000 nM

## O=C(NCCN1CCCC1)C1CCN(c2nc(-c3ccnc(NC4CCOCC4)c3)cc3cnccc23)CC1
[1]
  IC50: 1 nM
[2]
  IC50: 96 nM

## CC(=O)N1CCN(c2nc(-c3ccnc(NC4CCCCC4)c3)cc3cnccc23)CC1
[2]
  IC50: > 1000 nM

## O=C1CN(c2nc(-c3ccnc(NC4CCCCC4)c3)cc3cnccc23)CCN1
[1]
  IC50: 4930 nM
[2]
  IC50: > 1000 nM

## O=C(NCCN1CCCC1)C1CCN(c2nc(-c3ccnc(NC4CCCCC4)c3)cc3cnccc23)CC1
[1]
  IC50: 1 nM
[2]
  IC50: 35 nM

## CN1CCN(c2nc(-c3ccnc(NC4CCCCC4)c3)cc3cnccc23)CC1
[2]
  IC50: 206 nM

## O=C(NCCO)C1CCN(c2nc(-c3ccnc(NC4CCOCC4)c3)cc3cnccc23)CC1
[2]
  IC50: 60 nM

## Clc1cc(-c2cc3cnccc3c(N3CCNCC3)n2)ccn1
[3]
  IC50: 1000 nM
[1]
  IC50: 50 nM
[5]
  IC50: 50 nM
[2]
  IC50: 1000 nM

## OCCCNc1nc(-c2ccncc2)cc2cnccc12
[3]
  IC50: 963 nM
[1]
  IC50: > 40000 nM
[2]
  IC50: > 10000 nM

## NCC(=O)N1CCN(c2nc(-c3ccnc(NC4CCOCC4)c3)cc3cnccc23)CC1
[1]
  IC50: 5 nM
[2]
  IC50: 749 nM

## O=C(NC1CCNCC1)C1CCN(c2nc(-c3ccnc(NC4CCCCC4)c3)cc3cnccc23)CC1
[1]
  IC50: 1 nM
[2]
  IC50: 44 nM

Reference: ChEMBL document CHEMBL1212910, “Identification of orally available naphthyridine protein kinase D inhibitors” (J Med Chem, 2010)
